# Reference: US6087119A, “Method for determining the catalytic activity of factor IXa” (Roche Diagnostics GmbH, priority 1996, dated 2000)
# Where “and” joins values, the source holds several entries; their conditions need not be identical. Identical values can stand only once. Like-named read-outs stand apart in the source and are kept apart here.
# Experiments:
# thrombin (bovine) = thrombin (bovine) (Bos taurus, UniProt P00735); conditions: thrombin 0.045 μmol/l, MeSO2-D-HHT-Gly-Arg-pNA 1.02 mmol/l, pH 7.4
# Description: Thrombin Test Mixture (Concentration in the Test)
# (§1) 42 mmol/l Tris-HCl, pH 7.4
# (§2) 1.02 mmol/l MeSO2 -D-HHT-Gly-Arg-pNA
# 0.045 μmol/l thrombin (bovine)
# (§3) 0-50% ethanol or ethylene glycol
# rFIXa (human) [1] = biological target: T1, rFIXa (human) (Homo sapiens, UniProt P00740); experiment: Influence of alcohols and organic solvents on the activity of rFIXa, chromogenic peptide substrates; assay type: biochemical; set-up: coding for the FIX protease domain from amino acid position 181 to 415; Met (ATG start codon) (N); made in house; conditions: for V/V0: pH 7.4
# Experimental: The reaction was started by adding FIXa.
# MeSO2 -D-HHT-Gly-Arg-pNA→MeSO2 -D-HHT-Gly-Arg+pNA measurement signal: pNA
# 0.48 μmol/l rFIXa (human)
# 0-50% (alcohol or organic solvent)
# The ratio V/V0 was calculated to illustrate the stimulation of the catalytic activity of rFIXa.
# V0, reaction rate without additives
# V, reaction rate in the presence of additives
# Test Mixture Chromogenic (Concentration in the Test)
# Target sequence in this assay (P00740 227-461 limits assumed): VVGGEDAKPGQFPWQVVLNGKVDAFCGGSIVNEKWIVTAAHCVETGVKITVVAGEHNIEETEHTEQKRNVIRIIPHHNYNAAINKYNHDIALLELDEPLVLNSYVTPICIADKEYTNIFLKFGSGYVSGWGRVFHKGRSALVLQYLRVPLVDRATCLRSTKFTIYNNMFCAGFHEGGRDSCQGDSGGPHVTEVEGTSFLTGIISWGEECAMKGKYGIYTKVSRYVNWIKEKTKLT
# Target sequence in this assay (P00740 131-226 partner limits assumed): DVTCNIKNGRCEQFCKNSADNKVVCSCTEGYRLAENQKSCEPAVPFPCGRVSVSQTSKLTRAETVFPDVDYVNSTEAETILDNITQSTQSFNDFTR
# FXa (bovine) = FXa (bovine) (Bos taurus, UniProt P00743); conditions: FXa 0.088 μmol/l, MeSO2-D-HHT-Gly-Arg-pNA 1.02 mmol/l, pH 7.4
# FXa (bovine), sequence (P00743 234-492 limits assumed): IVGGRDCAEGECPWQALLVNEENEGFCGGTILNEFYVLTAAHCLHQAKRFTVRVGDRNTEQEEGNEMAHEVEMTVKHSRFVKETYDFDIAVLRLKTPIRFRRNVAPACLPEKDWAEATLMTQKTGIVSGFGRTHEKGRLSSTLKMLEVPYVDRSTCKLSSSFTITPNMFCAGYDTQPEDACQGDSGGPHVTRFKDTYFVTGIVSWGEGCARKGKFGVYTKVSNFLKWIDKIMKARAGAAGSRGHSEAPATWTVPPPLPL
# FXa (bovine), sequence (P00743 41-180 partner limits assumed): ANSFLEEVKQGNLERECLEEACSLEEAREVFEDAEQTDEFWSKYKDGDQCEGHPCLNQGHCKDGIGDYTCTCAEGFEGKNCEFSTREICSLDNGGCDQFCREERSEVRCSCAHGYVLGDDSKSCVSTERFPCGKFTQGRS
# Description: FXa Test Mixture (concentration in the Test)
# as §1, §2
# 0.088 μmol/l FXa (bovine)
# as §3
# FXIIa (human) = FXIIa (human) (Homo sapiens, UniProt P00748); conditions: FXIIa 0.0045 U/ml, MeSO2-D-HHT-Gly-Arg-pNA 1.02 mmol/l, pH 7.4
# FXIIa (human), sequence (P00748 373-615 limits assumed, other chains not shown): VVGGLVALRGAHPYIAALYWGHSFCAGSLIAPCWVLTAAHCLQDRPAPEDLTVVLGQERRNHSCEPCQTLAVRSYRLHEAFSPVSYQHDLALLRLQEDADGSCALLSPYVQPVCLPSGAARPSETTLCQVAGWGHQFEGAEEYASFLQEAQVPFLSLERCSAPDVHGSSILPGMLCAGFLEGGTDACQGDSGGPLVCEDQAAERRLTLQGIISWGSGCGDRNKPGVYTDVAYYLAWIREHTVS
# Description: FXIIa Test Mixture (Concentration in the Test)
# as §1, §2
# 0.0045 U/ml FXIIa (human)
# as §3
# [2] = biological target: plasma kallikrein (human) (Homo sapiens, UniProt P03952); conditions: PKallikrein 0.0176 U/ml, MeSO2-D-HHT-Gly-Arg-pNA 1.02 mmol/l, pH 7.4
# plasma kallikrein (human), sequence (P03952 391-638 limits assumed): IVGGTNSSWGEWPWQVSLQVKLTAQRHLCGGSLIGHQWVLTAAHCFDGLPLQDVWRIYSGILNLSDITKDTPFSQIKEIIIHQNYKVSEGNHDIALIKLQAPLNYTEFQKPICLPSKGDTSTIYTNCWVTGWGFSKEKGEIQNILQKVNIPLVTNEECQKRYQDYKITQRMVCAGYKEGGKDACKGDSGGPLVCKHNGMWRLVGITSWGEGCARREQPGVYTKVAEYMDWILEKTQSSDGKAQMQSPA
# plasma kallikrein (human), sequence (P03952 20-390 partner limits assumed): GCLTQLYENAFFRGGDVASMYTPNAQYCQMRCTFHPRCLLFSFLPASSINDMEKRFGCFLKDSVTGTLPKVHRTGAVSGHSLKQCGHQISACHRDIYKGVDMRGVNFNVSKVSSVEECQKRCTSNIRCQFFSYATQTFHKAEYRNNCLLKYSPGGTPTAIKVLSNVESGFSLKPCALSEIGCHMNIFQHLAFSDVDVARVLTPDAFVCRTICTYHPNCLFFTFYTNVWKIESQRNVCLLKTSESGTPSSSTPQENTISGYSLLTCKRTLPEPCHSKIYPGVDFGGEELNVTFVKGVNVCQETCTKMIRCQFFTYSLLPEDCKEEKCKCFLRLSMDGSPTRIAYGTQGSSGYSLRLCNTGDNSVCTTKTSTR
# Description: Plasma Kallikrein Test Mixture (Concentration in the Test)
# as §1, §2
# 0.0176 U/ml plasma kallikrein (human)
# as §3
# native FIXa (human) = native FIXa (human) (Homo sapiens, UniProt P00740); conditions: pH 7.4; for V/V0: MeSO2-D-HHT-Gly-Arg-pNA 1.02 mmol/l, 0.14 μmol/l native FIXa
# native FIXa (human), sequence (P00740 227-461 limits assumed): as the sequence (P00740 227-461 limits assumed) above
# native FIXa (human), sequence (P00740 47-191 partner limits assumed): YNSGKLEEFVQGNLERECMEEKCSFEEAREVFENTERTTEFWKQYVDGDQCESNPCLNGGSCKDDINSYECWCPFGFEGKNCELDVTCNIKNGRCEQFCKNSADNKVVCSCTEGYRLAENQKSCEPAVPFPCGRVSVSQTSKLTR
# Experimental: The FIXa test was carried out with recombinantly produced native human FIXa as a sample and the peptide substrate MeSO2 -D-HHT-Gly-Arg-pNA (Pefachrom tPA, Pentapharm Ltd., Basel, Switzerland) or other chromogenic/fluorogenic substrates of the R-D-Xxx-Gly-Arg-pNA type (EP-B 0 034 122) in Tris-HCl buffer and the substances to be tested (alcohol, solvents and inhibitors). The reaction was started by adding FIXa.
# The test mixture was incubated at room temperature (25° C.) in a microtitre plate and the change in absorbance (ΔA/min) was measured at 405 nm using an ELISA reader. The activity and the kinetic constants were determined from the linear initial slope according to the Michaelis-Menten equation.
# as §2
# 0.14 μmol/l native FIXa (human)
# as §3
# FIXa Test Mixture (Concentration in the Test)
# FXIa (human) = FXIa (human) (Homo sapiens, UniProt P03951); conditions: FXIa 0.0012 μmol/l, MeSO2-D-HHT-Gly-Arg-pNA 1.02 mmol/l, pH 7.4
# FXIa (human), sequence (P03951 388-625 limits assumed): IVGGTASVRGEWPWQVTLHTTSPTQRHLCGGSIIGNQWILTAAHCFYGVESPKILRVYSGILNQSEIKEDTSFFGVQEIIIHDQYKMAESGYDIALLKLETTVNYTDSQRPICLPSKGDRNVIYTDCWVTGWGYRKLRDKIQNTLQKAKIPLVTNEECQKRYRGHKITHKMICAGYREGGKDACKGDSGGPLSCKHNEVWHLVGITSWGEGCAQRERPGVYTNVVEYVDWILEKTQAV
# FXIa (human), sequence (P03951 19-387 partner limits assumed): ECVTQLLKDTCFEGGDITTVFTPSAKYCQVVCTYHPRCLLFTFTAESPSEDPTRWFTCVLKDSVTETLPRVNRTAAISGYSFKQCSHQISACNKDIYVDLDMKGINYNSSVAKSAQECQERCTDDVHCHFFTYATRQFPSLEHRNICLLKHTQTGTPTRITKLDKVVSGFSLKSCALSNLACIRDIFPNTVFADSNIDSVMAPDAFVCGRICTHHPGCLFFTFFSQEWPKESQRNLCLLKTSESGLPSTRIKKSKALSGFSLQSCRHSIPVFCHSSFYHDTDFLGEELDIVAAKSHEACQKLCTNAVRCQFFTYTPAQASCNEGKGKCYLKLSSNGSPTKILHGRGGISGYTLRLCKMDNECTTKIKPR
# Description: FXIa Test Mixture (Concentration in the Test)
# as §1, §2
# 0.0012 μmol/l FXIa (human)
# as §3
# rFIXa (human) [3] = biological target: T1, rFIXa (human); conditions: fluorogenic MeSO2-D-CHA-Gly-Arg-AMC 0.51 mmol/l, 0.08 μmol/l rFIXa, pH 7.4
# Description: The stimulation of human rFIXa by ethanol and ethylene glycol was examined using the peptide substrates MeSO2 -D-HHT-Gly-Arg-pNA (Pefachrom tPA, Pentapharm Ltd., Basel, Switzerland), MOC-D-Nle-Gly-Arg-pNA (Chromozym X, Boehringer Mannheim GmbH, Mannheim, Germany, Cat.No. 789763), MeSO2 -D-CHG-Gly-Arg-pNA (Pentapharm Ltd., Basel, Switzerland), MeSO2 -D-CHA-Gly-Arg-pNA (Pentapharm Ltd., Basel, Switzerland) and MeSO2 -D-CHA-Gly-Arg-AMC (Pentapharm Ltd., Basel, Switzerland).
# Test Mixture Fluorogenic (Concentration in the Test)
# 0.51 mmol/l MeSO2 -D-CHA-Gly-Arg-AMC
# 0.08 μmol/l rFIXa (human)
# Target sequence in this assay (P00740 227-461): as the sequence (P00740 227-461 limits assumed) above
# Target sequence in this assay (P00740 131-226): as the sequence (P00740 131-226 partner limits assumed) above
structure (smiles),measurement,setting,value
OCCO [Ethylene glycol],V/V0,thrombin (bovine); 8% alcohol,0.924
same,V/V0,thrombin (bovine); 16% alcohol,0.862
same,V/V0,thrombin (bovine); 25% alcohol,0.763
same,V/V0,thrombin (bovine); 33% alcohol,0.653
same,V/V0,thrombin (bovine); 41% alcohol,0.508
same,V/V0,thrombin (bovine); 50% alcohol,0.395
same,V/V0,"rFIXa (human) [1]; 8% additive, MOC-D-Nle-Gly-Arg-pNA 0.82 mmol/l, 0.48 μmol/l rFIXa",3.91
same,V/V0,"rFIXa (human) [1]; 8% additive, MeSO2-D-CHA-Gly-Arg-pNA 1.02 mmol/l, 0.48 μmol/l rFIXa",2.84
same,V/V0,"rFIXa (human) [1]; 8% additive, MeSO2-D-CHG-Gly-Arg-pNA 1.02 mmol/l, […] rFIXa",5.47
same,V/V0,"rFIXa (human) [1]; 8% additive, MeSO2-D-HHT-Gly-Arg-pNA 1.02 mmol/l, 0.48 μmol/l rFIXa",2.91
same,V/V0,"rFIXa (human) [1]; 16% additive, MOC-D-Nle-Gly-Arg-pNA 0.82 mmol/l, 0.48 μmol/l rFIXa",8.85
same,V/V0,"rFIXa (human) [1]; 16% additive, MeSO2-D-CHA-Gly-Arg-pNA 1.02 mmol/l, 0.48 μmol/l rFIXa",6.26
same,V/V0,"rFIXa (human) [1]; 16% additive, MeSO2-D-CHG-Gly-Arg-pNA 1.02 mmol/l, […] rFIXa",13.13
same,V/V0,"rFIXa (human) [1]; 16% additive, MeSO2-D-HHT-Gly-Arg-pNA 1.02 mmol/l, 0.48 μmol/l rFIXa",6.05
same,V/V0,"rFIXa (human) [1]; 25% additive, MOC-D-Nle-Gly-Arg-pNA 0.82 mmol/l, 0.48 μmol/l rFIXa",17.07
same,V/V0,"rFIXa (human) [1]; 25% additive, MeSO2-D-CHA-Gly-Arg-pNA 1.02 mmol/l, 0.48 μmol/l rFIXa",9.34
same,V/V0,"rFIXa (human) [1]; 25% additive, MeSO2-D-CHG-Gly-Arg-pNA 1.02 mmol/l, […] rFIXa",19.37
same,V/V0,"rFIXa (human) [1]; 25% additive, MeSO2-D-HHT-Gly-Arg-pNA 1.02 mmol/l, 0.48 μmol/l rFIXa",10.27
same,V/V0,"rFIXa (human) [1]; 33% additive, MOC-D-Nle-Gly-Arg-pNA 0.82 mmol/l, 0.48 μmol/l rFIXa",22.42
same,V/V0,"rFIXa (human) [1]; 33% additive, MeSO2-D-CHA-Gly-Arg-pNA 1.02 mmol/l, 0.48 μmol/l rFIXa",11.18 and 11
same,V/V0,"rFIXa (human) [1]; 33% additive, MeSO2-D-CHG-Gly-Arg-pNA 1.02 mmol/l, […] rFIXa",23.20
same,V/V0,"rFIXa (human) [1]; 33% additive, MeSO2-D-HHT-Gly-Arg-pNA 1.02 mmol/l, 0.48 μmol/l rFIXa",12.68
same,V/V0,"rFIXa (human) [1]; 41% additive, MOC-D-Nle-Gly-Arg-pNA 0.82 mmol/l, 0.48 μmol/l rFIXa",17.80
same,V/V0,"rFIXa (human) [1]; 41% additive, MeSO2-D-CHA-Gly-Arg-pNA 1.02 mmol/l, 0.48 μmol/l rFIXa",7.54
same,V/V0,"rFIXa (human) [1]; 41% additive, MeSO2-D-CHG-Gly-Arg-pNA 1.02 mmol/l, […] rFIXa",17.40
same,V/V0,"rFIXa (human) [1]; 41% additive, MeSO2-D-HHT-Gly-Arg-pNA 1.02 mmol/l, 0.48 μmol/l rFIXa",9.68
same,V/V0,"rFIXa (human) [1]; 50% additive, MOC-D-Nle-Gly-Arg-pNA 0.82 mmol/l, 0.48 μmol/l rFIXa",6.96
same,V/V0,"rFIXa (human) [1]; 50% additive, MeSO2-D-CHA-Gly-Arg-pNA 1.02 mmol/l, 0.48 μmol/l rFIXa",2.56
same,V/V0,"rFIXa (human) [1]; 50% additive, MeSO2-D-CHG-Gly-Arg-pNA 1.02 mmol/l, […] rFIXa",5.67
same,V/V0,"rFIXa (human) [1]; 50% additive, MeSO2-D-HHT-Gly-Arg-pNA 1.02 mmol/l, 0.48 μmol/l rFIXa",3.41
same,quotient V/V0 relative to that with substrate MeSO2-D-HHT-Gly-Arg-pNA,"rFIXa (human) [1]; above 25% ethylene glycol, substrates MOC-D-Nle-Gly-Arg-pNA and MeSO2-D-CHG-Gly-Arg-pNA",1.5-2 fold
same,stimulation of the activity of rFIXa,rFIXa (human) [1]; concentration range of 15-40%,5-15 fold
same,V/V0,FXa (bovine); 8% alcohol,0.973
same,V/V0,FXa (bovine); 16% alcohol,0.902
same,V/V0,FXa (bovine); 25% alcohol,0.741
same,V/V0,FXa (bovine); 33% alcohol,0.558
same,V/V0,FXa (bovine); 41% alcohol,0.347
same,V/V0,FXa (bovine); 50% alcohol,0.191
same,V/V0,FXIIa (human); 8% alcohol,0.892
same,V/V0,FXIIa (human); 16% alcohol,0.729
same,V/V0,FXIIa (human); 25% alcohol,0.551
same,V/V0,FXIIa (human); 33% alcohol,0.355
same,V/V0,FXIIa (human); 41% alcohol,0.187
same,V/V0,FXIIa (human); 50% alcohol,0.103
same,V/V0,[2]; 8% alcohol,1.05
same,V/V0,[2]; 16% alcohol,0.763
same,V/V0,[2]; 25% alcohol,0.676
same,V/V0,[2]; 33% alcohol,0.536
same,V/V0,[2]; 41% alcohol,0.478
same,V/V0,[2]; 50% alcohol,0.290
same,"activation among plasma kallikrein, FXIIa, FXIa, FIXa, FXa and thrombin (in words)","native FIXa (human); 0-50% alcohol, MeSO2-D-HHT-Gly-Arg-pNA",only FIXa is activated
same,V/V0,native FIXa (human); 8% additive,3.13
same,V/V0,native FIXa (human); 16% additive,6.19
same,V/V0,native FIXa (human); 25% additive,9.36
same,V/V0,native FIXa (human); 33% additive,12.21
same,V/V0,native FIXa (human); 41% additive,8.29
same,V/V0,native FIXa (human); 50% additive,3.92
same,V/V0,FXIa (human); 8% alcohol,0.922
same,V/V0,FXIa (human); 16% alcohol,0.790
same,V/V0,FXIa (human); 25% alcohol,0.569
same,V/V0,FXIa (human); 33% alcohol,0.422
same,V/V0,FXIa (human); 41% alcohol,0.275
same,V/V0,FXIa (human); 50% alcohol,0.165
same,V/V0,rFIXa (human) [3]; 8% additive,2.55
same,V/V0,rFIXa (human) [3]; 16% additive,5.59
same,V/V0,rFIXa (human) [3]; 25% additive,8.40
same,V/V0,rFIXa (human) [3]; 33% additive,8.90 and 9
same,V/V0,rFIXa (human) [3]; 41% additive,5.79
same,V/V0,rFIXa (human) [3]; 50% additive,1.44
